Where a name gives a salt, the structure may show the parent alone.
Key:
Format in all cases: biochemical
Settings in all cases: test concentration not given; average of triplicate
[1] = target: T1, Recombinant human HDAC11 (Homo sapiens, UniProt Q96DB2); experiment: HDAC inhibitory assay, HDAC11 (Boc-Lys(Tfa)-AMC substrate)
T1 construct: purchased BPS Biosciences
T1 sequence (Q96DB2 1-347): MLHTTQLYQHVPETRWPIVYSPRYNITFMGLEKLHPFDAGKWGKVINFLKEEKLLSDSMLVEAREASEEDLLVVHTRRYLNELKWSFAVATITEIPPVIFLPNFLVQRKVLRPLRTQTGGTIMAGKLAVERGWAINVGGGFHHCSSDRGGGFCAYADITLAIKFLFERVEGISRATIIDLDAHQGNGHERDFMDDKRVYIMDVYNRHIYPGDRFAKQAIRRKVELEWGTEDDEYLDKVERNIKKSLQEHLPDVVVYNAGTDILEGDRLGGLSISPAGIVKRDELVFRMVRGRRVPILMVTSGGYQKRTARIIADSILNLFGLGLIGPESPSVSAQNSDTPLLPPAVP
Protocol: (§1) The compounds of Examples 1-12 and 14-16 were evaluated for their ability to act as inhibitors of human HDAC. The compound of Example 13 was not tested. Recombinant human HDAC1, HDAC2, HDAC3/NcoR2, HDAC5, HDAC6, HDAC8, HDAC9, HDAC10 and HDAC11 were purchased from BPS Biosciences. Recombinant human HDAC4 and HDAC7 were purchased from Millipore. The substrate Boc-Lys(Ac)-AMC and Boc-Lys(Tfa)-AMC were purchased from Bachem. The substrate Ac-RHK(Ac)K(Ac)-AMC was purchased from Enzo Life Sciences. Due to the different specific activities of each isoform, different amount of enzyme was used in each isoform screening assay. In these assays, trichostatin A (TSA), suberanilohydroxamic acid and diphenylacetohydroxamic acid (DPAHA) were employed as positive controls. All determinations were carried out in triplicate, and reported values were the average of these determinations, which in no case varied by more than 5%.
(§2) For evaluating the inhibition of class IIa HDACs (HDAC4, HDAC5, HDAC7 and HDAC9) and class IV HDAC (HDAC11), 10 μl of test samples were first incubated with 1 ng HDAC4 (specific activity=15400 pmol/min/μg), 5 ng HDAC5 (specific activity=2521 pmol/min/μg), 1 ng HDAC7 (specific activity=26340 pmol/min/μg), 5 ng HDAC9 (specific activity=3000 pmol/min/μg), and 500 ng HDAC11 (specific activity=1.8 pmol/min/μg) respectively. Then 25 μl of the Boc-Lys(Tfa)-AMC substrate (50 μM final concentration) was added and incubated at 37° C. for 30-60 min, and followed by adding 50 μl of developer. The last step was to read the samples in a SpectraMax M5 plate reader (Molecular Devices) at an excitation wavelength of 360 nm and an emission wavelength of 460 nm.

[2] = target: T2, Recombinant human HDAC7 (Homo sapiens, UniProt Q8WUI4); experiment: HDAC inhibitory assay, HDAC7 (Boc-Lys(Tfa)-AMC substrate)
T2 construct: purchased Millipore
T2 sequence (Q8WUI4 1-952): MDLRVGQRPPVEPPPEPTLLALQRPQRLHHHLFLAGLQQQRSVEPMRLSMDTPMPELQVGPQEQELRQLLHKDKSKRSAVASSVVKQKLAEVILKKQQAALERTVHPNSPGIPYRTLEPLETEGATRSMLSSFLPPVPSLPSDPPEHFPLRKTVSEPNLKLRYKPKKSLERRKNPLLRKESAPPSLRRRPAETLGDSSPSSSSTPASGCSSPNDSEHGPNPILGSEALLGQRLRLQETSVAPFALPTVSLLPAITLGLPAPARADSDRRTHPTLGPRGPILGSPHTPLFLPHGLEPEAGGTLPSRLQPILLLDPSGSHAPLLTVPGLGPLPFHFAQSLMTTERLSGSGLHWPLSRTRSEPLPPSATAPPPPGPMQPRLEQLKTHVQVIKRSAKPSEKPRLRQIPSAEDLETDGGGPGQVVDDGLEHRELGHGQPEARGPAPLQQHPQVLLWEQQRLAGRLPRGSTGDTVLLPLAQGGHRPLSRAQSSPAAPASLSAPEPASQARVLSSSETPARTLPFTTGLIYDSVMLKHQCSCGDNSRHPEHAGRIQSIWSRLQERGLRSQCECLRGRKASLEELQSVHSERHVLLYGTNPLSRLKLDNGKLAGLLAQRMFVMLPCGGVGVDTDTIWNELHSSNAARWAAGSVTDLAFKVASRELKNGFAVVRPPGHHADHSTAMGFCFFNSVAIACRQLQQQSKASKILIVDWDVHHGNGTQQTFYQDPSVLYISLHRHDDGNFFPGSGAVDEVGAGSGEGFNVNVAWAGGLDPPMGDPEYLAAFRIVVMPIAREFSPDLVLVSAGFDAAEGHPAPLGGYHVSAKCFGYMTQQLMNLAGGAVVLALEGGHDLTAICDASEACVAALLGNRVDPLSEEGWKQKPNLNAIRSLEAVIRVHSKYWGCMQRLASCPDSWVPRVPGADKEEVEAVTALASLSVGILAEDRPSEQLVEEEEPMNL
Protocol: as §1, §2

[3] = target: T3, Recombinant human HDAC4 (Homo sapiens, UniProt P56524); experiment: HDAC inhibitory assay, HDAC4 (Boc-Lys(Tfa)-AMC substrate)
T3 construct: purchased Millipore
Protocol: as §1, §2

[4] = target: T4, Recombinant human HDAC10 (Homo sapiens, UniProt Q969S8); experiment: HDAC inhibitory assay, HDAC10 (Boc-Lys(Ac)-AMC substrate)
T4 construct: purchased BPS Biosciences
T4 sequence (Q969S8 1-669): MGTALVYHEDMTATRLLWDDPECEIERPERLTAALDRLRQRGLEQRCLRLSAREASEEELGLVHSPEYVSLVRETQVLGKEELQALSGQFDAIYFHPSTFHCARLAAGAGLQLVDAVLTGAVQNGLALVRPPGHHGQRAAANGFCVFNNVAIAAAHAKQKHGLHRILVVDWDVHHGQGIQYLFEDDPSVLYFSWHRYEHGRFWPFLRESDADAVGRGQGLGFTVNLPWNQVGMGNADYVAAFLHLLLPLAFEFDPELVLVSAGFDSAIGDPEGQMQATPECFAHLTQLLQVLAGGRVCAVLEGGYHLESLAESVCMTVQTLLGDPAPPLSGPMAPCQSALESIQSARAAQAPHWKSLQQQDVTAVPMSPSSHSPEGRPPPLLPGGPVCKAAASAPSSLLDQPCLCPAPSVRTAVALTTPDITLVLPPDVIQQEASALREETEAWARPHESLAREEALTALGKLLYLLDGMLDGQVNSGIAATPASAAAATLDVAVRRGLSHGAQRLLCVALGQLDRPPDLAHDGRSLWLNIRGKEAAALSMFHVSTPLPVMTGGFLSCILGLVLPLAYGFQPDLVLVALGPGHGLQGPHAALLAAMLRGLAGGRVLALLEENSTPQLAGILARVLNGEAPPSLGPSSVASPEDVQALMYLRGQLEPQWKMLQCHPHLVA
Protocol: as §1
Then 25 μl of the Boc-Lys(Ac)-AMC substrate (50 μM final concentration) was added and incubated at 37° C. for 30-60 min, and followed by adding 50 μl of developer (1 mg/ml trypsin and 1 μM TSA). The last step was reading the samples in a SpectraMax M5 plate reader (Molecular Devices) at an excitation wavelength of 360 nm and an emission wavelength of 460 nm.

T3 sequence (P56524 whole entry): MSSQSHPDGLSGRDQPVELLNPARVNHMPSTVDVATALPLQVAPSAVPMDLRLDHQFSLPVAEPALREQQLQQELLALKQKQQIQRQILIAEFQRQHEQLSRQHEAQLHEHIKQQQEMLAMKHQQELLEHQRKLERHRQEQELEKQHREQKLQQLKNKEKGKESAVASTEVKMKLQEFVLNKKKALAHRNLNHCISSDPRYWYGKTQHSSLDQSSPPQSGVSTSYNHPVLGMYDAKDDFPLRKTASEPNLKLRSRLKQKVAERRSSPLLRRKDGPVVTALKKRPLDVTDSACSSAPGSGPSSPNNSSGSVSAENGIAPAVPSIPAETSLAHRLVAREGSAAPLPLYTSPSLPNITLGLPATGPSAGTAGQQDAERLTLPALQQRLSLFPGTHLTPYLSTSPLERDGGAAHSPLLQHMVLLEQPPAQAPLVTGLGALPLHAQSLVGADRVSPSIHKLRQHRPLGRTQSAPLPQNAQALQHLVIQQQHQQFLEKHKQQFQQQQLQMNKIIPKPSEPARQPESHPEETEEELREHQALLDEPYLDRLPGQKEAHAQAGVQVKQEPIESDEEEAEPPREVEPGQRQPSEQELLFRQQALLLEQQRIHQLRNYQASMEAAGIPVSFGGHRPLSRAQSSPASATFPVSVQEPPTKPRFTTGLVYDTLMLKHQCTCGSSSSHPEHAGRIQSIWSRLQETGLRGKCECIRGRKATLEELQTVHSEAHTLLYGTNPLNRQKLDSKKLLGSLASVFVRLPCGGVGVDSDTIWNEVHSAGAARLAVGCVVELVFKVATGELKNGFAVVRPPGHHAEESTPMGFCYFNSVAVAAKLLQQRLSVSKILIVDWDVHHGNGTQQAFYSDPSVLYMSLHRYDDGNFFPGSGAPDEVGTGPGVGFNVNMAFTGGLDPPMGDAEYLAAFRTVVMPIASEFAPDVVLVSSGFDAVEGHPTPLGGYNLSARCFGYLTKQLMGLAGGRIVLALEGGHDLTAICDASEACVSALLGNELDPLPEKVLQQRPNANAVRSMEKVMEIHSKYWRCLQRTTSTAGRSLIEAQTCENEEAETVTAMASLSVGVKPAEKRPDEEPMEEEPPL

Row | Structure (SMILES) | HDAC 11 inhibitory activity [1] [%] | HDAC 7 inhibitory activity [2] [%] | HDAC 4 inhibitory activity [3] [%] | HDAC 10 inhibitory activity [4] [%]
1 | O=C(NCC(c1ccccc1)c1ccccc1)c1coc(-c2ccccc2O)n1 [Example 3, N-(2,2-Diphenylethyl)-2-(2-hydroxyphenyl)oxazole-4-carboxamide] | 39.5 | 4.1 | 8.5 | 35.7
2 | O=C(NCc1ccc(-c2ccccc2)cc1)c1coc(-c2ccccc2O)n1 [Example 6, N-([1,1′-Biphenyl]-4-ylmethyl)-2-(2-hydroxyphenyl)oxazole-4-carboxamide] | 47.8 | 1.4 | 24.4 | 48.7
3 | O=C(Nc1ccccc1)c1ccc(CNC(=O)c2coc(-c3ccccc3O)n2)cc1 [Example 15, 2-(2-Hydroxyphenyl)-N-(4-(phenylcarbamoyl)benzyl)oxazole-4-carboxamide] | 20.1 | 9.9 | 18.3 | 56.3
4 | O=C(NCCCCNCCC(c1ccccc1)c1ccccc1)c1coc(-c2ccccc2O)n1 [Example 12, N-(4-((3,3-Diphenylpropyl)amino)butyl)-2-(2-hydroxyphenyl)oxazole-4-carboxamide hydrochloride] | 39.1 | 0 | 6.5 | 26.2
5 | O=C(NCCCCNC(=O)C(c1ccccc1)c1ccccc1)c1coc(-c2ccccc2O)n1 [Example 10, N-(4-(2,2-Diphenylacetamido)butyl)-2-(2-hydroxyphenyl)oxazole-4-carboxamide] | 30.1 | 2.2 | 4.8 | 56.5
6 | O=C(NCCCCNC(=S)NCCC(c1ccccc1)c1ccccc1)c1coc(-c2ccccc2O)n1 [Example 11, N-(4-(3-(3,3-Diphenylpropyl)thioureido)butyl)-2-(2-hydroxyphenyl)oxazole-4-carboxamide] | 69.9 | 21.9 | 55.8 | 91.2
7 | O=C(NC(c1ccccc1)c1ccccc1)c1coc(-c2ccccc2O)n1 [Example 2, N-Benzhydryl-2-(2-hydroxyphenyl)oxazole-4-carboxamide] | 23.1 | 9.2 | 20.7 | 47.1
8 | O=C(Nc1ccccc1)c1coc(-c2ccccc2O)n1 [Example 1, 2-(2-Hydroxyphenyl)-N-phenyloxazole-4-carboxamide] | 21.8 | 1.3 | 17.1 | 48.8
9 | O=C(NCCC(c1ccccc1)c1ccccc1)c1coc(-c2ccccc2O)n1 [Example 4, N-(3,3-Diphenylpropyl)-2-(2-hydroxyphenyl)oxazole-4-carboxamide] | 45.2 | 0.7 | 25.8 | 69.8
10 | O=C(NCCc1c[nH]c2ccccc12)c1coc(-c2ccccc2O)n1 [Example 8, N-(2-(1H-Indol-3-yl)ethyl)-2-(2-hydroxyphenyl)oxazole-4-carboxamide] | 26.0 | 3.8 | 7.5 | 44.8
11 | O=C(Nc1ccc(-c2ccccc2)cc1)c1coc(-c2ccccc2O)n1 [Example 5, N-([1,1′-Biphenyl]-4-yl)-2-(2-hydroxyphenyl)oxazole-4-carboxamide] | 28.4 | 19.4 | 25.5 | 58.6
12 | O=C(CNC(=O)c1coc(-c2ccccc2O)n1)Nc1ccccc1 [Example 16, 2-(2-Hydroxyphenyl)-N-(2-oxo-2-(phenylamino)ethyl)oxazole-4-carboxamide] | 46.6 | 0 | 28.1 | 54.7
13 | O=C(NCc1cccc2ccccc12)c1coc(-c2ccccc2O)n1 [Example 7, 2-(2-Hydroxyphenyl)-N-(naphthalen-1-ylmethyl)oxazole-4-carboxamide] | 49.9 | 3.8 | 21.3 | 44.5
14 | O=C(NCCCCN1C(=O)c2ccccc2C1=O)c1coc(-c2ccccc2O)n1 [Example 9, N-(4-(1,3-Dioxoisoindolin-2-yl)butyl)-2-(2-hydroxyphenyl)oxazole-4-carboxamide] | 33.8 | 1.1 | 17.5 | 32.1
15 | O=C(O)c1ccc(CNC(=O)c2coc(-c3ccccc3O)n2)cc1 [Example 14, 4-((2-(2-Hydroxyphenyl)oxazole-4-carboxamido)methyl)benzoic acid] | 49.2 | 9.3 | 24.2 | 47.2

Reference: US10000474B2, “Histone deacetylase inhibitors and uses thereof” (MUSC FOUNDATION FOR RESEARCH DEVELOPMENT, priority 2014, dated 2018)
